{"source": "patent US20070098735A1", "about": "“Methods for the Elimination of Pathogens and Other Particulate Agents” (priority 2005, published 2007)", "key": {"[1]": {"test_system": "full thickness wounds of naïve mice", "experiment": "Adoptive transfer of pre-treated RAW 264.7 macrophages into wounded mice, wound closure", "type": "in vivo", "experimental": "Macrophage Cell Culture, Pre-treatment, and Adoptive Transfer. RAW 264.7 macrophages (ATCC) were grown as described by ATCC. Cells were harvested by gently scraping them from the cell culture flasks, centrifuged and washed once in cultured grade PBS. […] They were then washed 3 times with PBS, and were re-suspended to achieve a concentration of 400,000, 40,000, or 4,000 cells per 0.5 ml PBS. Adoptive transfer of these cells was performed by subcutaneous injections in the nape of the neck using a 25-gauge needle in mice that were wounded as previously described. Adoptive transfers were given on days 0, 2 and 4 post-operatively.\nMacrophages were treated in vitro with either HSPs or non-HSP controls and transferred into naïve wounded mice (as described in Materials and Methods) to test if HSPs could in part mediate some of their activity through macrophages. […] Data is plotted as average percent wound closure ±SEM on day 2. *P values were obtained using the Student's t-test by comparing HSP treatment to all of the non-HSP control treatments. The least significant P value was reported.\nTitratability of adoptive transfer was examined by transferring 4,000, 40,000 or 400,000 macrophages pre-treated as described in Materials and Methods."}, "[2]": {"test_system": "CD4+ T cells purified from spleens of DO 11.10 mice (IFN-γ)", "experiment": "IFN-γ release by CD4+ T cells (ELISA)", "type": "cell-based", "conditions": "compared to ova-coated yeast alone or HSP70 given alone", "experimental": "(§1) Proliferation of CD4+ T cells and INF-γ (interferon gamma) release. Unlabeled S. cerevisiae (80 μg) was incubated with excess chicken ovary albumin (OVA) at 37° C. for 1 hour and washed repeatedly to eliminate free OVA protein. S. cerevisiae-OVA complexes (OVA-coated yeast) were administered to macrophages treated with or without HSP70. Macrophages were then washed and irradiated at 12,000 rads and assessed for viability by trypan blue exclusion. Subsequently, they were co-cultured with CD4+ T lymphocytes that were purified from spleens of DO 11.10 mice and labeled with carboxyfluoroscein succinimidyl ester (CSFE). […] Following the 48-hour incubation, proliferation of CD4+ cells was determined with FACS and IFN-γ release in the supernatant was tested by enzyme-linked immunosorbent assay (ELISA; Pierce, Ill.).\n(§2) Alexafluor labeled S. cerevisiae were coated with whole ovalbumin (OVA) protein 1 mg/ml by co-incubation at 37° C. for 20 minutes and washed until free OVA protein was removed (washes were tested by gel electrophoresis using SDS-PAGE and immunoblotting). […] Resultant proliferation of the CSFE-labeled CD4+ was measured by FACS as an indirect measure of the amount of OVA protein processed and its peptide epitope presented in context of MHC-II. […]"}, "[3]": {"test_system": "CD4+ T cells purified from spleens of DO 11.10 mice", "experiment": "Proliferation of CD4+ T cells after MHC-II presentation of OVA-coated yeast by macrophages (FACS)", "type": "cell-based", "conditions": "macrophages treated with HSP70 100 μg/ml and OVA-coated yeast", "experimental": "as §1, §2"}, "[4]": {"test_system": "RAW 264.7 macrophages", "experiment": "In vitro macrophage phagocytosis of wound debris", "type": "cell-based, murine", "conditions": "RAW264.7, labeled wound debris, 37° C."}}}
{"substance": "HSP70: heat shock protein purified from murine livers, prepared as a complex with endogenous peptide", "values": [{"measurement": "titratability of adoptive transfer by cell number", "setting": "[1]; 4,000, 40,000 or 400,000 pre-treated macrophages", "result": "Increasing the number of HSP pretreated cells increases the percentage of wound closure"}, {"measurement": "early wound closure after adoptive transfer of pre-treated macrophages", "setting": "[1]; 400,000 macrophages pre-treated at 30 μg/dose", "result": "significantly accelerated early wound closure"}, {"measurement": "wound healing on day 2 after adoptive transfer of pre-treated macrophages", "setting": "[1]; 400,000 macrophages pre-treated at 30 μg/dose, day 2 post surgery", "result": 62, "unit": "%"}, {"measurement": "IFN-γ production by CD4+ cells", "setting": "[2]", "result": "increase in their ability to produce IFN-γ"}, {"measurement": "CD4+ proliferation", "setting": "[3]", "result": 20, "unit": "%"}, {"measurement": "increase in phagocytosed wound debris compared to controls", "setting": "[4]", "result": 25, "unit": "%"}]}
